Experiments:
[1] = Metabolic stability in liver microsomes, rat; assay type: in vitro ADME; settings: residual ratio of unreacted substance, 0.2 mg/mL microsomes, NADPH generating system
Experimental: (§1) A test solution was prepared by diluting 10 mM DMSO solution of a test substance with acetonitrile by 100 times.
(§2) Human and animal liver microsomes (SEKISUI XENOTECH; Human (H2610), Rat (R1000), Mouse (M1000), Monkey (P2000), Dog (D1000)) were adjusted with potassium phosphate buffer (pH 7.4) to 0.2 mg/mL in the reaction system. Then, 1% of the solution of a test substance prepared was added to the reaction system. Thereto was added an NADPH generating system (prepared according to the method of Non Patent Literature 28), and the metabolic reaction was initiated. At a designated time, 0.1% formic acid-acetonitrile/water (3:1) was added thereto, and the reaction was terminated.
(§3) The sample after termination of the reaction was separated by centrifugation (1400 g, 20 min.), and then the supernatant was measured by LC/MS (UPLC-SQD (waters)) to calculate a residual ratio of unreacted substances.

[2] = Metabolic stability in hepatocytes, dog; assay type: in vitro ADME; settings: residual ratio of unreacted substance, 1×10^6 cells/mL
Experimental: (§4) A test solution was prepared by diluting 10 mM DMSO solution of a test substance with acetonitrile by 20 times.
(§5) Human and animal cryopreserved hepatocyte (BIOIVT; Human (IVT-X008000), Rat (IVT-M00005), Monkey (IVT-M00305), Dog (IVT-M00205)) were adjusted with William's Medium E (SIGMA; W1878) to 1×10^6 cells/mL of a cell suspension, which was then added to a 96-well plate. Then, 1% of the solution of a test substance prepared was added to the reaction system, and the metabolic reaction was initiated. At a designated time, 0.1% formic acid-acetonitrile was added thereto, and the reaction was terminated.
as §3

[3] = Metabolic stability in hepatocytes, rat; assay type: in vitro ADME; settings: residual ratio of unreacted substance, 1×10^6 cells/mL
Experimental: as §4, §5, §3

[4] = Metabolic stability in liver microsomes, mouse; assay type: in vitro ADME; settings: residual ratio of unreacted substance, 0.2 mg/mL microsomes, NADPH generating system
Experimental: as §1, §2, §3

CYP3A4 = assay: Potential for induction of CYP3A4 (Nuclear Receptor Activation Kit, DPX2 cells, reporter activity); assay type: in vitro ADME; settings: 48 hours, % of positive control (rifampicin); for Potential for induction of CYP3A4, 3 μM: 3 μM compound; for Potential for induction of CYP3A4, 10 μM: 10 μM compound
Experimental: Potential for induction of CYP3A4 was evaluated with Nuclear Receptor Activation Kits (PURACYP; DPX2-96-002) according to protocols attached.
The following experiment was performed with substances accompanying Nuclear Receptor Activation Kits (PURACYP; DPX2-96-002).
A measurement method is specifically shown as follows. DPX2 cells were seeded on a 96-well plate and incubated with a CO2 incubator for 24 hours. […] The media on 96-well plate were removed with an aspirator 24 hours after seeding, and thereto was added the compound-supplemented medium which was prepared. CellTiter-Fluor was added to the medium 48 hours after the addition of compound, and the mixture was incubated with a CO2 incubator for 1 hour. Then, a cell viability was measured by the fluorometric method. ONE-Glo was added to the mixture, and the mixture was incubated with a CO2 incubator for 5 minutes. Then, the reporter activity was measured by luminescent determination. The induction ratio was calculated by comparing the resulting reporter activity with a DMSO control sample. % of positive control was calculated from the following equation.

[5] = Metabolic stability in liver microsomes, human; assay type: in vitro ADME; settings: residual ratio of unreacted substance, 0.2 mg/mL microsomes, NADPH generating system
Experimental: as §1, §2, §3

[6] = Rat pharmacokinetic (PK) assay and measurement of plasma concentrations; assay type: in vivo; settings: male rat, 0.3 mg/kg, DMSO solution, T1/2=0.693/Kel
Experimental: A DMSO solution (0.1 mL/kg) of test substance (0.3 mg/kg) was administered to a male rat (7-week old), and blood was collected at designated times (5, 10, 15, 30 min., 1, 2, 4, 8, 25 hr). Samples after the blood collection were separated by centrifugation (11000 g, 5 min.) to obtain plasmas.
A double volume of a mixed solution of acetonitrile/water (9:1) was added to a plasma sample obtained in (1) in order that proteins were extracted from the mixture. The sample after extraction was separated by centrifugation (11000 g, 5 min.), and the supernatant was measured by LC/MSMS (Nexera (Shimadzu)-QTrap5500 (AB SCIEX)). A calibration curve was measured simultaneously, and plasma concentrations were calculated.
The elimination rate constant (Kel) was calculated from two points of the elimination phase in the plasma concentration profile, and the half-life (T1/2) was calculated from the elimination rate constant.
Kel=−(ln Conc1−ln Conc2)/(t1−t2)

| Metabolic stability in liver microsomes at 60 min., Rat [1] [%] | Metabolic stability in hepatocytes at 240 min., Dog [2] [%] | Metabolic stability in hepatocytes at 240 min., Rat [3] [%] | Metabolic stability in liver microsomes at 60 min., Mouse [4] [%] | Potential for induction of CYP3A4, 3 μM (CYP3A4) [%] | Potential for induction of CYP3A4, 10 μM (CYP3A4) [%] | Metabolic stability in liver microsomes at 60 min., Human [5] [%] | half-life [6] [h] | Potential for induction of CYP3A4, 30 μM (CYP3A4; 30 μM compound) [%] | SMILES |
| --- | --- | --- | --- | --- | --- | --- | --- | --- | --- |
| 95 | 78 | 94 | 98 | <10 | <10 | 96 | 13.2 |  | CC[C@H](C)C1=CN(C23CC(C(=O)O)(C2)C3)C(=O)N[C@@]1(C)c1ccc([C@@H]2C[C@H]2C(C)(C)C)c(Cl)c1 [Compound (2), 3-{(S)-5-((S)-sec-Butyl)-4-[4-((1R,2R)-2-tert-butyl-cyclopropyl)-3-chloro-phenyl]-4-methyl-2-oxo-3,4-dihydro-2H-pyrimidin-1-yl}bicyclo[1.1.1]pentane-1-carboxylic acid] |
| 103 | 88 | 90 | 95 | <10 | <10 | 99 | 10.5 | <10 | CC(C)C1=CN(C23CC(C(=O)O)(C2)C3)C(=O)N[C@@]1(C)c1ccc([C@@H]2C[C@H]2C(C)(C)C)c(Cl)c1 [Compound (1), 3-{(S)-4-[4-((1R,2R)-2-tert-Butyl-cyclopropyl)-3-chloro-phenyl]-5-isopropyl-4-methyl-2-oxo-3,4-dihydro-2H-pyrimidin-1-yl}bicyclo[1.1.1]pentane-1-carboxylic acid] |

From patent US20210363110A1, “4-METHYLDIHYDROPYRIMIDINONE COMPOUNDS AND PHARMACEUTICAL USE THEREOF” (Japan Tobacco Inc., priority 2018, published 2021)
